Test results published in paper PMC11602153, “Differential redox sensitivity of tRNA dihydrouridylation” (Nucleic Acids Research, 2024).

What was measured:
DusA = target: T1, DusA (Escherichia coli, UniProt P32695); experiment: flavin bound to the purified protein; type: binding; details: non-covalent; flavin named FMN elsewhere in the paper
T1 construct: expression construct, tags and host not described
T1 sequence (P32695 1-345): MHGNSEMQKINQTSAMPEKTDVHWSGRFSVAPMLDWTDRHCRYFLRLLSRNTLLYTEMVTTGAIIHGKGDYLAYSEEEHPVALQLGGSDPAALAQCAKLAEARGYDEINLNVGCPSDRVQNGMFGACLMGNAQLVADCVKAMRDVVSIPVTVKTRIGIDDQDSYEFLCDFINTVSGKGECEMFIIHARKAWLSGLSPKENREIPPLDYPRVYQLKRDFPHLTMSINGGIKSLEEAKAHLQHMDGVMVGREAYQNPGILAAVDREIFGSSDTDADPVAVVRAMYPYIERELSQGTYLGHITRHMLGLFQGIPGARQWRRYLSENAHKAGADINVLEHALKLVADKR

DusC = target: T2, DusC (Escherichia coli, UniProt P33371); experiment: flavin bound to the purified protein; type: binding; details: non-covalent; flavin named FMN elsewhere in the paper
T2 construct: expression construct, tags and host not described
T2 sequence (P33371 1-315): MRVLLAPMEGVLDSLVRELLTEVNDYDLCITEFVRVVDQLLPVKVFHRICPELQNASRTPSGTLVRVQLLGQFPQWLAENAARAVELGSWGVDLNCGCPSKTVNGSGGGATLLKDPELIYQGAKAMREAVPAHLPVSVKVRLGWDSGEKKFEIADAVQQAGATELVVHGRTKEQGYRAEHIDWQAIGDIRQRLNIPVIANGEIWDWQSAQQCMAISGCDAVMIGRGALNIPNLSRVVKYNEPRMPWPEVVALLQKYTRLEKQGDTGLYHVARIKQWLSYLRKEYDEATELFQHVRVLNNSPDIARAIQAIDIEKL

DusB = target: T3, DusB (Escherichia coli, UniProt P0ABT5); experiment: flavin bound to the purified protein; type: binding; details: non-covalent; flavin named FMN elsewhere in the paper
T3 construct: expression construct, tags and host not described
T3 sequence (P0ABT5 1-321): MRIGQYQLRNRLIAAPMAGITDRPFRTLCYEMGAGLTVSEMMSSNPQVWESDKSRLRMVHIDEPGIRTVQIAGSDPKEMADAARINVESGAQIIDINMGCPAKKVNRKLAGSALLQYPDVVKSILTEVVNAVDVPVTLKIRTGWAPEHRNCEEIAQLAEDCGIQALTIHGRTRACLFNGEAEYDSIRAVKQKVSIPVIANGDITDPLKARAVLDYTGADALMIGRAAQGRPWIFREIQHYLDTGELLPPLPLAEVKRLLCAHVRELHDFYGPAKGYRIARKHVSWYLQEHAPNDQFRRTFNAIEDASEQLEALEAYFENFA

[1] = substrate: NC(=O)C1=CN([C@@H]2O[C@H](COP(=O)(O)OP(=O)(O)OC[C@H]3O[C@@H](n4cnc5c(N)ncnc54)[C@H](OP(=O)(O)O)[C@@H]3O)[C@@H](O)[C@H]2O)C=CC1; experiment: NADPH oxidase, spectrophotometric, steady state; type: biochemical, Escherichia coli; details: air (O2) as final electron acceptor, 50 mM HEPES pH 7.5, 150 mM NaCl, 15% glycerol, no tRNA

## Cc1cc2nc3c(=O)[nH]c(=O)nc-3n(C[C@H](O)[C@H](O)[C@H](O)COP(=O)(O)O)c2cc1C [FMN]
DusA
  flavin bound to the purified protein: exhibited non-covalently bound flavin, associated with the apoproteins
DusC
  flavin bound to the purified protein: exhibited non-covalently bound flavin, associated with the apoproteins
DusB
  flavin bound to the purified protein: exhibited non-covalently bound flavin, associated with the apoproteins

B1: DusA (Escherichia coli K-12) (protein)
chain: MHGNSEMQKINQTSAMPEKTDVHWSGRFSVAPMLDWTDRHCRYFLRLLSRNTLLYTEMVTTGAIIHGKGDYLAYSEEEHPVALQLGGSDPAALAQCAKLAEARGYDEINLNVGCPSDRVQNGMFGACLMGNAQLVADCVKAMRDVVSIPVTVKTRIGIDDQDSYEFLCDFINTVSGKGECEMFIIHARKAWLSGLSPKENREIPPLDYPRVYQLKRDFPHLTMSINGGIKSLEEAKAHLQHMDGVMVGREAYQNPGILAAVDREIFGSSDTDADPVAVVRAMYPYIERELSQGTYLGHITRHMLGLFQGIPGARQWRRYLSENAHKAGADINVLEHALKLVADKR
notes: expression construct, tags and host not described
[1]
  Km: 17 ± 3 µM
  kcat: 0.48 ± 0.072 s⁻¹
